# Read-outs that look alike come from different tables or passages of the source.
# Assays:
# [1] = molecular target: PI3K-α (PIK3CA) in MDA-MB-453 cells (Homo sapiens, UniProt P42336); assay: PI3K-Alpha Kinase (PIK3CA) activity in vitro cell based assay (AlphaLisa SureFire)
# In short: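 Serum-free MDA-MB-453 cells with 1 μg/mL insulin treated 3 h with a 10-point compound series in 0.3% DMSO; lysates analysed by AlphaLisa SureFire. Relative IC50 from 4-parameter fit of % inhibition versus DMSO (max) and 1 μM GDC-0032 (min) controls, duplicates.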
# [2] = molecular target: T1, human full length PIK3KA H1047R mutant (p110α/p85α complex) (Homo sapiens, UniProt P42336, H1047R); assay: PI3K-Alpha Kinase (PIK3CA) biochemical activity, H1047R mutant (ADP-Glo); conditions: 20 uM ATP
# T1 construct: Recombinant, catalytically active human full length PIK3KA Wild-type and H1047R mutant were purchased; 6xHis (N); purchased EMD Millipore Sigma 14-792M
# T1 sequence (P42336 whole entry H1047R): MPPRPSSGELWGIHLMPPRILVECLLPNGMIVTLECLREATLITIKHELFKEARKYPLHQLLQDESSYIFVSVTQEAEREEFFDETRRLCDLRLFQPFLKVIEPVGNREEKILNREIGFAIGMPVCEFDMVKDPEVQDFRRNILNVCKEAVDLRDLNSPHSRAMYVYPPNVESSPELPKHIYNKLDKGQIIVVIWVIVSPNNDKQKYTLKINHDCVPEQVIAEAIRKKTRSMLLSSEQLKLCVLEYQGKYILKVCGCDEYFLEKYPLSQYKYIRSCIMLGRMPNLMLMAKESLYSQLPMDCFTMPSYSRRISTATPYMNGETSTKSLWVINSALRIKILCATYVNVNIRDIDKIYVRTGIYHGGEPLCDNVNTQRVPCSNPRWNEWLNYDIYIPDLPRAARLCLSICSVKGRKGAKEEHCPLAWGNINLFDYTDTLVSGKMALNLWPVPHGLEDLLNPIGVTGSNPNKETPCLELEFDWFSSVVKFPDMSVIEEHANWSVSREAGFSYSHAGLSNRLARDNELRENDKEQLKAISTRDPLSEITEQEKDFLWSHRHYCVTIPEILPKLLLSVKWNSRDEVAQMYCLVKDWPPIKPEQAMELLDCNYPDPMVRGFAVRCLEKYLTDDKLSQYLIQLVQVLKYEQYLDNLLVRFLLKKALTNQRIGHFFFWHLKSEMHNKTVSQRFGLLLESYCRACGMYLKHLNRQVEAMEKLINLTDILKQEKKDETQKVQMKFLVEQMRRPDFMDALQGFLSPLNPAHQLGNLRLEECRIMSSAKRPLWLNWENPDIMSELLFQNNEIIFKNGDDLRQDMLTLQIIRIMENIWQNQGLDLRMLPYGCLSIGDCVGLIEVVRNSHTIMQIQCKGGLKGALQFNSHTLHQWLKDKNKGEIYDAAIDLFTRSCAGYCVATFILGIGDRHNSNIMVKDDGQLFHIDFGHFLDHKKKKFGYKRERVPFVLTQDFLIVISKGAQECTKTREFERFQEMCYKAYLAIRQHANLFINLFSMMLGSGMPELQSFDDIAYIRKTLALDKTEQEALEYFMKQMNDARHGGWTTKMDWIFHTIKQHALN
# T1 sequence (P27986 whole entry partner): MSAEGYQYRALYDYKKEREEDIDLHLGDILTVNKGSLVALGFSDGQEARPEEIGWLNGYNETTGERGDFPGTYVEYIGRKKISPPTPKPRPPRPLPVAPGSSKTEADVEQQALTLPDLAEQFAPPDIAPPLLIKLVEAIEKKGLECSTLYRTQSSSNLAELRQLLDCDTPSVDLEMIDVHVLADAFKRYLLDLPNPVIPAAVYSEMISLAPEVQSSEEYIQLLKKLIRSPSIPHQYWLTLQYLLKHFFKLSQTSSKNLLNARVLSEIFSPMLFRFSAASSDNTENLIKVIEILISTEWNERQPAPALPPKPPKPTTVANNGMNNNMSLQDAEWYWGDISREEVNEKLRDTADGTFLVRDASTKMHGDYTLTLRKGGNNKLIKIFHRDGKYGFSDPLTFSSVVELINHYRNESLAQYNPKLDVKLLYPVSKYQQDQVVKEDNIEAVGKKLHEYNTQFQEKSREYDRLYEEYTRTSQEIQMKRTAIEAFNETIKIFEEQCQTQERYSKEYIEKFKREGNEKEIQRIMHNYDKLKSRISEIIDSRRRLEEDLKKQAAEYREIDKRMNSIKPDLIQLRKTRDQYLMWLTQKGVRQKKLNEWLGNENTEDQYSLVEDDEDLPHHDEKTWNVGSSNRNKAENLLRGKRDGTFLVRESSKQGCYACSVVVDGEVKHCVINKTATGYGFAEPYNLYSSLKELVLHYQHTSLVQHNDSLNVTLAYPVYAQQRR
# In short: (§1)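 ADP formation, measured by ADP-Glo luminescence after reaction to about 10% ATP conversion at 27° C., gives 10-point 4-parameter IC50 curves normalized to no-enzyme and DMSO controls. Lipid substrate was PIP2diC8 or Soy PI at 50 uM, with 20 uM ATP. WT or H1047R p110α/p85α complex (1-5 nM) was preincubated 1 h with compound.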
# [3] = molecular target: T2, human full length PIK3KA Wild-type (p110α/p85α complex) (Homo sapiens, UniProt P42336); assay: PI3K-Alpha Kinase (PIK3CA) biochemical activity, wild-type (ADP-Glo); conditions: 20 uM ATP
# T2 construct: Recombinant, catalytically active human full length PIK3KA Wild-type and H1047R mutant were purchased; 6xHis (N); purchased EMD Millipore Sigma 14-602M
# In short: as §1
# [4] = read-out: PI3K-α (PIK3CA) in vitro cell based assay IC50, 0% FBS, 3 hours treatment
# [5] = 0% FBS, 3 hours treatment, read-out: PI3K-α (PIK3CA) in vitro cell based assay IC50
# Chain of PI3K-α (PIK3CA) in MDA-MB-453 cells (P42336 whole entry): as the sequence (P42336 whole entry H1047R) above, with R1047H counted along it
# Chain of PI3K-α (PIK3CA) in MDA-MB-453 cells (P27986 2-724, further chain): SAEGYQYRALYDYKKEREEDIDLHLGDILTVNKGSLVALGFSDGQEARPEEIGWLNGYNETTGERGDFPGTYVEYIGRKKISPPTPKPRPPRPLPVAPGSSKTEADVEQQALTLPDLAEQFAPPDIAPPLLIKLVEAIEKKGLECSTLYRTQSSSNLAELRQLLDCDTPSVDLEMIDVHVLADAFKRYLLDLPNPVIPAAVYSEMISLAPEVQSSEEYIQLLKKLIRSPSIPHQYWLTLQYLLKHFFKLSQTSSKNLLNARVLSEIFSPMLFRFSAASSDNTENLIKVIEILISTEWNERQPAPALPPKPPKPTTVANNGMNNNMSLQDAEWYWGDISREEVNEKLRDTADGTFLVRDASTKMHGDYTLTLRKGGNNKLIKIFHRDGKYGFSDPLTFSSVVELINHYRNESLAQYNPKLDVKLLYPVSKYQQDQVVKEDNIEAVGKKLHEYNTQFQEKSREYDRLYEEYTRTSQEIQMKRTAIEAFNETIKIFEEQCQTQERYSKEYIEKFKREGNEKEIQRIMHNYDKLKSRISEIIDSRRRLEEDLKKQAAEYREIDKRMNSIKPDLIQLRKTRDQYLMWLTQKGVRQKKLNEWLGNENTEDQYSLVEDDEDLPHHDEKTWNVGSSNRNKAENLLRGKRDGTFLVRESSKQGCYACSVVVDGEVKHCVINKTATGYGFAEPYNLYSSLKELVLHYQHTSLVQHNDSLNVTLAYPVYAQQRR
SMILES,"IC50 [1, 4]",IC50 ([2]; Soy PI lipid substrate),IC50 ([3]; Soy PI lipid substrate),"IC50 [1, 5]",IC50 ([2]; PIP2diC8 lipid substrate),IC50 ([3]; PIP2diC8 lipid substrate)
"Cc1cc(C(C)Nc2ccccc2C(=O)O)c2oc(-c3ccc(C4(C#N)CC4)nc3)c(C)c(=O)c2c1 (single isomer, unassigned) [Example 89, 2-[1-[2-[6-(1-Cyanocyclopropyl)-3-pyridyl]-3,6-dimethyl-4-oxo-chromen-8-yl]ethylamino]benzoic acid, Isomer 1,2,2,2-trifluoroacetic acid]",< 50 nM,< 500 nM,1000 to 5000 nM,–,–,–
"Cc1cc(C(C)Nc2ccccc2C(=O)O)c2oc(-c3cn(-c4ccc(C#N)cc4)nn3)cc(=O)c2c1 (single isomer, unassigned) [Example 124, 2-[1-[2-[1-(4-Cyanophenyl)triazol-4-yl]-6-methyl-4-oxo-chromen-8-yl]ethylamino]benzoic acid, Isomer 2,2,2,2-trifluoroacetic acid]",50 to 100 nM,< 500 nM,1000 to 5000 nM,–,–,–
"Cc1cc(C(C)Nc2cccc(F)c2C(=O)O)c2oc(-c3ccccn3)cc(=O)c2c1 (single isomer, unassigned; isomer 1) [Example 110, 2-Fluoro-6-[1-[6-methyl-4-oxo-2-(2-pyridyl)chromen-8-yl]ethylamino]benzoic acid, Isomer 1]",–,< 500 nM,1000 to 5000 nM,100 to 500 nM,–,–
"Cc1c(-c2cncc(F)c2)oc2c(C(C)Nc3ccc(Cl)nc3C(=O)O)cc(C(F)(F)F)cc2c1=O (single isomer, unassigned; isomer 1) [Example 97, 6-Chloro-3-[1-[2-(5-fluoro-3-pyridyl)-3-methyl-4-oxo-6-(trifluoromethyl)chromen-8-yl]ethylamino]pyridine-2-carboxylic acid, Isomer 1]",–,< 500 nM,1000 to 5000 nM,< 50 nM,–,–
"COc1ccccc1-n1cc(-c2oc3c(C(C)Nc4ccccc4C(=O)O)cc(C)cc3c(=O)c2C)cn1 (single isomer, unassigned) [Example 70, 2-[1-2-[1-(2-Methoxyphenyl)pyrazol-4-yl]-3,6-dimethyl-4-oxo-chromen-8-yl]ethylamino]benzoic acid, Isomer 1,2,2,2-trifluoroacetic acid]",< 50 nM,1000 to 5000 nM,1000 to 5000 nM,–,–,–
"Cc1cc(C(C)Nc2ccccc2C(=O)O)c2oc(-c3cncc(F)c3)cc(=O)c2c1 (single isomer, unassigned) [Example 44, 2-[1-[2-(5-Fluoro-3-pyridyl)-6-methyl-4-oxo-chromen-8-yl]ethylamino]benzoic acid, Isomer 2,2,2,2-trifluoroacetic acid]",< 50 nM,< 500 nM,1000 to 5000 nM,–,–,–
"Cc1cc(C(C)Nc2ccc(C(F)(F)F)cc2C(=O)O)c2oc(-c3cccnc3)c(C)c(=O)c2c1 (single isomer, unassigned; isomer 1) [Example 119, 2-[1-[3,6-Dimethyl-4-oxo-2-(3-pyridyl)chromen-8-yl]ethylamino]-5-(trifluoromethyl)benzoic acid, Isomer 1]",–,< 500 nM,1000 to 5000 nM,50 to 100 nM,–,–
"Cc1cc(C(C)Nc2ccccc2C(=O)O)c2oc(-c3cc(C)n[nH]3)cc(=O)c2c1 (single isomer, unassigned) [Example 75, 2-[1-[6-Methyl-2-(3-methyl-1H-pyrazol-5-yl)-4-oxo-chromen-8-yl]ethylamino]benzoic acid, Isomer 2,2,2,2-trifluoroacetic acid]",50 to 100 nM,< 500 nM,5000 to 10000 nM,–,–,–
"CC(Nc1ccccc1C(=O)O)c1cc(F)cc2c(=O)cc(-c3cnn(-c4cccnc4)c3)oc12 (single isomer, unassigned) [Example 55, 2-[1-[6-Fluoro-4-oxo-2-[1-(3-pyridyl)pyrazol-4-yl]chromen-8-yl]ethylamino]benzoic acid, Isomer 1,2,2,2-trifluoroacetic acid]",100 to 500 nM,< 500 nM,5000 to 10000 nM,–,–,–
"Cc1cc(C(C)Nc2ccccc2C(=O)O)c2oc(-c3ccc(F)nc3)cc(=O)c2c1 (single isomer, unassigned; isomer 2) [Example 36, 2-[1-[2-(6-Fluoro-3-pyridyl)-6-methyl-4-oxo-chromen-8-yl]ethylamino]benzoic acid, Isomer 2]",–,< 500 nM,5000 to 10000 nM,< 50 nM,–,–
"COc1ccc(-n2cc(-c3cc(=O)c4cc(C)cc(C(C)Nc5ccccc5C(=O)O)c4o3)cn2)cc1C#N (single isomer, unassigned) [Example 86, 2-[1-[2-[1-(3-Cyano-4-methoxy-phenyl)pyrazol-4-yl]-6-methyl-4-oxo-chromen-8-yl]ethylamino]benzoic acid, Isomer 2,2,2,2-trifluoroacetic acid]",100 to 500 nM,< 500 nM,1000 to 5000 nM,–,–,–
"Cc1cc(C(C)Nc2ccccc2C(=O)O)c2oc(-c3cncc(F)c3)c(C)c(=O)c2c1 (single isomer, unassigned; isomer 1) [Example 45, 2-[1-[2-(5-Fluoro-3-pyridyl)-3,6-dimethyl-4-oxo-chromen-8-yl]ethylamino]benzoic acid, Isomer 1]",–,< 500 nM,500 to 1000 nM,< 50 nM,–,–
"Cc1cc(C(C)Nc2ccccc2C(=O)O)c2oc(-c3cnc(C)nc3)cc(=O)c2c1 (single isomer, unassigned; isomer 2) [Example 33, 2-[1-[6-Methyl-2-(2-methylpyrimidin-5-yl)-4-oxo-chromen-8-yl]ethylamino]benzoic acid, Isomer 2]",–,–,–,> 500 nM,> 10000 nM,> 10000 nM
"Cc1cc(C(C)Nc2ccccc2C(=O)O)c2oc(-c3cnc(OC(C)C)nc3)cc(=O)c2c1 (single isomer, unassigned; isomer 2) [Example 42, 2-[1-[2-(2-Isopropoxypyrimidin-5-yl)-6-methyl-4-oxo-chromen-8-yl]ethylamino]benzoic acid, Isomer 2]",–,< 500 nM,5000 to 10000 nM,50 to 100 nM,–,–
"Cc1cc(C(C)Nc2ccc(Cl)cc2C(=O)O)c2oc(-c3cccnc3)c(C)c(=O)c2c1 (single isomer, unassigned; isomer 1) [Example 132, 5-Chloro-2-[1-[3,6-dimethyl-4-oxo-2-(3-pyridyl)chromen-8-yl]ethylamino]benzoic acid, Isomer 1]",–,< 500 nM,500 to 1000 nM,< 50 nM,–,–
"Cc1cc(C(C)Nc2ccc(C)nc2C(=O)O)c2oc(-c3cccnc3)c(C)c(=O)c2c1 (single isomer, unassigned; isomer 1) [Example 118, 3-[1-[3,6-Dimethyl-4-oxo-2-(3-pyridyl)chromen-8-yl]ethylamino]-6-methyl-pyridine-2-carboxylic acid, Isomer 1]",–,< 500 nM,1000 to 5000 nM,50 to 100 nM,–,–
"CC(Nc1ccccc1C(=O)O)c1cc(C(F)(F)F)cc2c(=O)cc(-c3ccccn3)oc12 (single isomer, unassigned; isomer 1) [Example 76, 2-[1-[4-Oxo-2-(2-pyridyl)-6-(trifluoromethyl)chromen-8-yl]ethylamino]benzoic acid, Isomer 1]",–,< 500 nM,5000 to 10000 nM,50 to 100 nM,–,–
"Cc1cc(C(C)Nc2ccccc2C(=O)O)c2oc(-c3ccccn3)c(C)c(=O)c2c1 (single isomer, unassigned; isomer 1) [Example 24, 2-[1-[3,6-Dimethyl-4-oxo-2-(2-pyridyl)chromen-8-yl]ethylamino]benzoic acid, Isomer 1]",–,< 500 nM,1000 to 5000 nM,< 50 nM,–,–

# Reference: patent publication US20230014445A1, “ALLOSTERIC CHROMENONE INHIBITORS OF PHOSPHOINOSITIDE 3-KINASE (PI3K) FOR THE TREATMENT OF DISEASE” (Petra Pharma Corporation, priority 2021, published 2023)
